Where two headings read alike, the source gives them in different places.
Key:
P 388 mouse leukaemia = experiment: P 388 leukaemia test (life span of i.p. transplanted mice); assay type: in vivo, BDF hybrid mice
Method: (§1) The effect of the new compounds on intraperitoneally transplantable tumors (P 388 mouse leukaemia and NK/Ly ascites lymphoma) is described hereinbelow. The P 388 leukaemia test was performed on BDF hybrid mice. The tests were carried out on groups of six mice and 10^6 tumor cells/animal were transplanted intraperitoneally. Administration of the test compounds was started in the 24th hour after transplantation. Treatment was performed intraperitoneally and the body weight and state of animals was controlled every day. The effect obtained on the treated animals is expressed in % of the mean length of life of the control group, given in days.

[1] = Acute toxicity in mice (i.p., Lichfield and Wilcoxon), with paralytic side effect; assay type: in vivo, male Swiss mice; settings: for LD50: mouse, in vivo, ip; for Paralytic side effect: symbols 0 / + not defined
Method: The acute toxicity of the compounds according to the invention was tested on male Swiss mice weighing 27 to 31 g. The tests were carried out on groups of six mice. Test compounds were administered intraperitoneally, as injectable solutions prepared with physiological saline solution and optionally one drop of Tween 80.

[2] = system: intraperitoneally transplantable tumors (P 388 mouse leukaemia and NK/Ly ascites lymphoma); experiment: Similar transplanted tumor tests with N-desmethyl-N-(methoxymethyl)-20'-desoxy-leurosidine (life span); assay type: in vivo; settings: for Treated/Control: mean length of life
Method: as §1
(§2) Into groups of ten Swiss-H/Riop outbred mice from our own breed 5×10^6 ascites tumour cells were transplanted intraperitoneally. In the 24th hour after transplantation treatment was started and the compounds were administered daily, altogether five times. The mean length of life of the control group amounted to 15.7 days.
Similar tests were performed with N-desmethyl-N-(methoxymethyl)-20'-desoxy-leurosidine. In these tests the doses and the number of treatments were varied.

NK/Ly ascites lymphoma = experiment: NK/Ly ascites tumour test (survival and tumor-free animals); assay type: in vivo, Swiss-H/Riop outbred mice
Method: as §1, §2

HeLa culture = experiment: Metaphase block stages in stained tissue cultures; assay type: cell-based; settings: for effect on mitosis at lowest dose: 0.001 μg./ml.
Method: The test compounds were dissolved in the tissue cultures (HeLa culture) in concentrations ranging from the threshold dose of 1×10^-3 μg./ml. up to 100 μg./ml. In 24-hour cultures, by in vivo microscopic evaluation of the metaphase-arresting affect the following results were obtained.
Under similar conditions but using stained tissue cultures slight differences could be observed which can be classified as follows:
The first stage (minimal effective dose) is characterized by an increased ratio of blocked mitoses. A part is abnormal mitoses, for example three-group mitosis or polar chromosomes also occur. Generally the anaphases have already disappeared.
In the second stage a strong metaphase blocking is observed and practically there is no regulare mitosis present. Chromosomes are in the form of a loose glomus. The proportion of interphase cells is low.
In the third stage the chromosomas are aggregated in a mass in the middle of the cell. This state is called picnomitosis of "Ball-Metaphase".
In the fourth stage already the interphase cells are influenced. More particularly, the number of the blocked cells is decreased since they are not able to take part in mitosis. The cytoplasm of the cells (in interphase) is extended, its border is irregular, "fringy", the cells frequently have an elongated, fibroplast-like shape.
Finally, in the fifth stage the cytoplasm is filled in by a fine, reticular structure and the interphase cell has unambiguously been killed by the treatment.

[3] = Mus musculus, P388, ip, mean length of life, 8 × 1.0 mg./kg. i.p., read-out: Treated/Control
[4] = Mus musculus, P388, ip, mean length of life, 8 × 4.0 mg./kg. i.p., read-out: Treated/Control
[5] = Mus musculus, P388, ip, mean length of life, 8 × 2.0 mg./kg. i.p., read-out: Treated/Control
[6] = Mus musculus, P388, ip, mean length of life, 8 × 8.0 mg./kg. i.p., read-out: Treated/Control
[7] = Mus musculus, P388, ip, mean length of life, 8 × 0.4 mg./kg. i.p., read-out: Treated/Control

| SMILES | response vs control in vivo at 4 mg/kg (P 388 mouse leukaemia; [4]) [%] | LD50 [1] [mg/kg] | Paralytic side effect [1] | Mean length of life, treated (P 388 mouse leukaemia; 8 × 4.0 mg./kg. i.p.) [days] | Mean length of life, treated (P 388 mouse leukaemia; 8 × 8.0 mg./kg. i.p.) [days] | response vs control in vivo at 8 mg/kg (P 388 mouse leukaemia; [6]) [%] | Mean length of life, treated (P 388 mouse leukaemia; 8 × 0.4 mg./kg. i.p.) [days] | response vs control in vivo at 0.4 mg/kg (P 388 mouse leukaemia; [7]) [%] | further results |
| --- | --- | --- | --- | --- | --- | --- | --- | --- | --- |
| CCC1(O)CC2CN(CCc3c([nH]c4ccccc34)C(C(=O)OC)(c3cc4c(cc3OC)N(COC)C3C(O)(C(=O)OC)C(OC(C)=O)C5(CC)C=CCN6CCC43C65)C2)C1 (centres unmarked) [N-Desmethyl-N-(methoxymethyl)-vinblastine] | 171 | ~100 | 0 |  |  |  |  |  | Mean length of life, treated (P 388 mouse leukaemia; 8 × 1.0 mg./kg. i.p.): 12.7 days; Mean length of life, treated (P 388 mouse leukaemia; 8 × 6.0 mg./kg. i.p.): 19.2 days; response vs control in vivo at 1 mg/kg (P 388 mouse leukaemia; [3]): 122%; response vs control in vivo at 6 mg/kg (P 388 mouse leukaemia; Mus musculus, P388, ip, mean length of life, 8 × 6.0 mg./kg. i.p., read-out: Treated/Control): 182% |
| CCOCN1c2cc(OC)c(C3(C(=O)OC)CC4CN(CCc5c3[nH]c3ccccc53)CC(O)(CC)C4)cc2C23CCN4CC=CC(CC)(C(OC(C)=O)C(O)(C(=O)OC)C12)C43 (centres unmarked) [N-Desmethyl-N-(ethoxymethyl)-vinblastine] | 167 | ~110 | 0 | 18.5 | 20.5 | 208 |  |  | Mean length of life, treated (P 388 mouse leukaemia; 8 × 2.0 mg./kg. i.p.): 20.3 days; response vs control in vivo at 2 mg/kg (P 388 mouse leukaemia; [5]): 193% |
| CCC1CC2CN(CCc3c([nH]c4ccccc34)C(C(=O)OC)(c3cc4c(cc3OC)N(COC)C3C(O)(C(=O)OC)C(OC(C)=O)C5(CC)C=CCN6CCC43C65)C2)C1 (centres unmarked) [N-Desmethyl-N-(methoxymethyl)-20'-desoxyleurosidine] |  |  |  |  |  |  |  |  | Mean length of life, treated ([2]; 4 × 7 mg./kg. i.p.): 17.1 days; Mean length of life, treated ([2]; 4 × 8 mg./kg. i.p.): 21.8 days; Mean length of life, treated ([2]; 8 × 0.5 mg./kg. i.p.): 15.3 days; Mean length of life, treated ([2]; 8 × 1 mg./kg. i.p.): 21.7 days; Mean length of life, treated ([2]; 8 × 4 mg./kg. i.p.): 20.8 days; Treated/Control ([2]; 4 × 7 mg./kg. i.p.): 142%; Treated/Control ([2]; 4 × 8 mg./kg. i.p.): 180%; Treated/Control ([2]; 8 × 0.5 mg./kg. i.p.): 126%; Treated/Control ([2]; 8 × 1 mg./kg. i.p.): 178%; Treated/Control ([2]; 8 × 4 mg./kg. i.p.): 180% |
| CCC1(O)CC2CN(CCc3c([nH]c4ccccc34)C(C(=O)OC)(c3cc4c(cc3OC)N(COC3CCCCC3)C3C(O)(C(=O)OC)C(OC(C)=O)C5(CC)C=CCN6CCC43C65)C2)C1 (centres unmarked) [N-Desmethyl-N-(cyclohexaloxymethyl)vinblastine] | 181 | ~60 | 0 | 18.8 | 19.3 | 197 | 13.1 | 127 | alive (NK/Ly ascites lymphoma; 5 × 4.0 mg./kg. i.p.): 10/10; on the 25th day tumor-free (NK/Ly ascites lymphoma; 5 × 4.0 mg./kg. i.p.): 5/10; on the 30th day tumor-free (NK/Ly ascites lymphoma; 5 × 4.0 mg./kg. i.p.): 3/10 |
| CCC1(O)CC2CN(CCc3c([nH]c4ccccc34)C(C(=O)OC)(c3cc4c(cc3OC)N(COCC(C)C)C3C(O)(C(=O)OC)C(OC(C)=O)C5(CC)C=CCN6CCC43C65)C2)C1 (centres unmarked) [N-Desmethyl-N-(isobutoxymethyl)-vinblastine] | 194 | ~60 | 0 | 20.0 | 20.5 | 208 | 13.7 | 133 | alive (NK/Ly ascites lymphoma; 5 × 4.0 mg./kg. i.p.): 10/10; on the 25th day tumor-free (NK/Ly ascites lymphoma; 5 × 4.0 mg./kg. i.p.): 10/10; on the 30th day tumor-free (NK/Ly ascites lymphoma; 5 × 4.0 mg./kg. i.p.): 7/10; relative effectiveness (HeLa culture): an order of a magnitude lower effect; effect on mitosis at lowest dose (HeLa culture): regular mitoses could still be observed |
| CCC1(O)CC2CN(CCc3c([nH]c4ccccc34)C(C(=O)OC)(c3cc4c(cc3OC)N(COCc3ccccc3)C3C(O)(C(=O)OC)C(OC(C)=O)C5(CC)C=CCN6CCC43C65)C2)C1 (centres unmarked) [N-Desmethyl-N-(benzyloxymethyl)-vinblastine] | 178 | ~70 | 0 | 18.3 |  |  | 13.0 | 126 | Mean length of life, treated (P 388 mouse leukaemia; 5 × 8.0 mg./kg. i.p.): 19.2 days; response vs control in vivo at 8 mg/kg (P 388 mouse leukaemia; Mus musculus, P388, ip, mean length of life, 5 × 8.0 mg./kg. i.p., read-out: Treated/Control): 195%; relative effectiveness (HeLa culture): weakest effect; effect on mitosis at lowest dose (HeLa culture): minimum block with several deformed mitoses but without anaphases; effect on mitosis at 0.01 μg./ml. (HeLa culture; 0.01 μg./ml.): the block was moderate |
| CC[C@]1(O)C[C@@H]2CN(CCc3c([nH]c4ccccc34)[C@@](C(=O)OC)(c3cc4c(cc3OC)N(C)[C@H]3[C@@](O)(C(N)=O)[C@H](O)[C@]5(CC)C=CCN6CC[C@]43[C@@H]65)C2)C1 [vindesine, reference compound] |  | 4 |  |  |  |  |  |  |  |
| C=CCOCN1c2cc(OC)c(C3(C(=O)OC)CC4CN(CCc5c3[nH]c3ccccc53)CC(O)(CC)C4)cc2C23CCN4CC=CC(CC)(C(OC(C)=O)C(O)(C(=O)OC)C12)C43 (centres unmarked) [N-Desmethyl-N-(allyloxymethyl)-vinblastine] | 200 | ~45 | 0 | 21.0 | 20.5 | 207 | 15.0 | 145 | alive (NK/Ly ascites lymphoma; 5 × 4.0 mg./kg. i.p.): 10/10; on the 25th day tumor-free (NK/Ly ascites lymphoma; 5 × 4.0 mg./kg. i.p.): 10/10; on the 30th day tumor-free (NK/Ly ascites lymphoma; 5 × 4.0 mg./kg. i.p.): 6/10 |
| CCCOCN1c2cc(OC)c(C3(C(=O)OC)CC4CN(CCc5c3[nH]c3ccccc53)CC(O)(CC)C4)cc2C23CCN4CC=CC(CC)(C(OC(C)=O)C(O)(C(=O)OC)C12)C43 (centres unmarked) [N-Desmethyl-N-(propoxymethyl)-vinblastine] | 171 | ~80 | 0 | 19.0 | 20.2 | 205 |  |  | Mean length of life, treated (P 388 mouse leukaemia; 8 × 1.0 mg./kg. i.p.): 15.0 days; Mean length of life, treated (P 388 mouse leukaemia; 8 × 2.0 mg./kg. i.p.): 20.8 days; Mean length of life, treated (P 388 mouse leukaemia; 8 × 10.0 mg./kg. i.p.): 14.7 days; Toxicity (P 388 mouse leukaemia; 8 × 10.0 mg./kg. i.p., footnote: The animals died tumorfree): toxic; response vs control in vivo at 1 mg/kg (P 388 mouse leukaemia; [3]): 145%; response vs control in vivo at 2 mg/kg (P 388 mouse leukaemia; [5]): 198%; response vs control in vivo at 10 mg/kg (P 388 mouse leukaemia; Mus musculus, P388, ip, mean length of life, 8 × 10.0 mg./kg. i.p., read-out: Treated/Control): 142% |
| CC[C@]1(O)C[C@@H]2CN(CCc3c([nH]c4ccccc34)[C@@](C(=O)OC)(c3cc4c(cc3OC)N(C)[C@H]3[C@@](O)(C(=O)OC)[C@H](OC(C)=O)[C@]5(CC)C=CCN6CC[C@]43[C@@H]65)C2)C1 [vinblastine, reference compound] |  |  | 0 |  |  |  |  |  |  |
| CCCCCCCOCN1c2cc(OC)c(C3(C(=O)OC)CC4CN(CCc5c3[nH]c3ccccc53)CC(O)(CC)C4)cc2C23CCN4CC=CC(CC)(C(OC(C)=O)C(O)(C(=O)OC)C12)C43 (centres unmarked) [N-Desmethyl-N-(heptoxymethyl)-vinblastine] | 181 | ~60 | 0 | 18.7 | 21.3 | 247 | 14.3 | 139 | alive (NK/Ly ascites lymphoma; 5 × 6.0 mg./kg. i.p.): 10/10; on the 25th day tumor-free (NK/Ly ascites lymphoma; 5 × 6.0 mg./kg. i.p.): 7/10; on the 30th day tumor-free (NK/Ly ascites lymphoma; 5 × 6.0 mg./kg. i.p.): 3/10; relative effectiveness (HeLa culture): most effective compound |

Reference: patent publication US4410459A, “Process for preparation of cytostatic compounds” (priority 1980, dated 1983)
